Source: patent US9567342B2, “Certain protein kinase inhibitors” (SHANGHAI FOCHON PHARMACEUTICAL CO., LTD., priority 2012, dated 2017)

How the values were obtained:
NCI-H2228 cells = assay: In vivo antitumor activity, NCI-H2228 cells implanted sc in nude mice; conditions: QD, oral, NCI-H2228 xenograft
Description: Male nude mice (6-week old) were housed in a specific pathogen-free room with a 12 h light/dark schedule at 20-25° C. and were fed an autoclaved chow diet and water ad libitum.
NCI-H2228 cells at a density of […] in 200 μL were first implanted sc into the right flank of each nude mice and then allowed to grow to above 230 mm^3, the mice were randomly assigned into control and treatment groups (n=6 per group for compound treated group, n=12 per group for vehicle group). Vehicle control group were given vehicle alone, and treatment groups were received Compound 4, LDK378 or Crizotinib as indicated doses via oral administration once daily for 21 days. The mice tumor volumes in each group were measured twice per week.

SU-DHL-1 cells = assay: Inhibition activity of cell proliferation (CCK-8 assay); format: cell-based; conditions: Homo sapiens, 72 h exposure
Description: SU-DHL-1 cells were seeded in 96-well tissue culture plates. On the next day, cells were exposed to various concentrations of compounds and further cultured for 72 h. Cell proliferation was then determined using Cell Counting Kit-8 [(CCK-8), Dojindo]assay. Briefly, add 10 μL of the CCK-8 solution to each well of the plate. Incubate the plate for 1-4 hours in the incubator. Measure the absorbance at 450 nm using a multi-well spectrophotometer (SpectraMAX 190, Molecular Devices). The inhibition rate (%) was calculated using the following equation: [1−(A450 Compound/A450 Control)]×100%. IC50 values were calculated according to inhibition curve by four-parameter fit.

How did the “Mean relative tumor volume (RTV) ± S.E.” value (NCI-H2228 cells; D0, 50 mg/kg) turn out when `C[C@@H](Oc1cc(-c2cnn(C3CCNCC3)c2)cnc1N)c1c(Cl)ccc(F)c1Cl` [Crizotinib] was run?
The value was 100.00.

What about the “Mean relative tumor volume (RTV) ± S.E.” value (NCI-H2228 cells; D4, 50 mg/kg) of the same molecule?
The value was 67.71±.

What about the “Mean relative tumor volume (RTV) ± S.E.” value (NCI-H2228 cells; D7, 50 mg/kg) of the same molecule?
Its value is 54.10.

And the “Mean relative tumor volume (RTV) ± S.E.” value (NCI-H2228 cells; D11, 50 mg/kg)?
Its value is 44.71.

What about the “Mean relative tumor volume (RTV) ± S.E.” value (NCI-H2228 cells; D14, 50 mg/kg) of the same molecule?
Its value is 42.69.

And the “Mean relative tumor volume (RTV) ± S.E.” value (NCI-H2228 cells; D18, 50 mg/kg)?
Its value is 41.44.

And the “Mean relative tumor volume (RTV) ± S.E.” value (NCI-H2228 cells; D21, 50 mg/kg)?
The value was 43.69.

And the IC50 (SU-DHL-1 cells)?
The IC50 was 75.4 to 154 nM.

Which “Mean relative tumor volume (RTV) ± S.E.” value (NCI-H2228 cells; D0, 10 mg/kg) does the source give for `Cc1cc(Nc2nc(Nc3ccccc3S(=O)(=O)C(C)C)c3c(C)n[nH]c3n2)c2c(c1C1CCN(C)CC1)C[C@@H](C)O2` [Example 4] here?
Its value is 100.00.

What about the “Mean relative tumor volume (RTV) ± S.E.” value (NCI-H2228 cells; D4, 10 mg/kg) of the same molecule?
The value was 52.92.

And the “Mean relative tumor volume (RTV) ± S.E.” value (NCI-H2228 cells; D7, 10 mg/kg)?
The value was 36.55.

And the “Mean relative tumor volume (RTV) ± S.E.” value (NCI-H2228 cells; D11, 10 mg/kg)?
The value was 29.20.

What about the “Mean relative tumor volume (RTV) ± S.E.” value (NCI-H2228 cells; D14, 10 mg/kg) of the same molecule?
Its value is 18.82.

And the “Mean relative tumor volume (RTV) ± S.E.” value (NCI-H2228 cells; D18, 10 mg/kg)?
Its value is 9.48.

And the “Mean relative tumor volume (RTV) ± S.E.” value (NCI-H2228 cells; D21, 10 mg/kg)?
Its value is 5.28.

And the IC50 (SU-DHL-1 cells)?
The IC50 was 10.9 nM.

How did the IC50 (SU-DHL-1 cells) turn out when `CO[C@@H](C)C(=O)N1CCC(c2c(C)cc(Nc3ncc(Cl)c(Nc4ccccc4S(=O)(=O)C(C)C)n3)c3c2C[C@@H](C)O3)CC1` [Example 57, (S)-1-(4-((R)-7-((5-chloro-4-((2-(isopropylsulfonyl)phenyl)amino)pyrimidin-2-yl)amino)-2,5-dimethyl-2,3-dihydrobenzofuran-4-yl)piperidin-1-yl)-2-methoxypropan-1-one] was run?
The IC50 was 32.8 nM.

With `CO[C@@H](C)C(=O)N1CCC(c2c(C)cc(Nc3ncc(Cl)c(Nc4ccccc4S(=O)(=O)C(C)C)n3)c3c2C[C@H](C)O3)CC1` [Example 58, (S)-1-(4-((S)-7-((5-chloro-4-((2-(isopropylsulfonyl)phenyl)amino)pyrimidin-2-yl)amino)-2,5-dimethyl-2,3-dihydrobenzofuran-4-yl)piperidin-1-yl)-2-methoxypropan-1-one] as the molecule, how does the IC50 (SU-DHL-1 cells) read?
Its IC50 is 141 nM.

How did the “Mean relative tumor volume (RTV) ± S.E.” value (NCI-H2228 cells; D0, 20 mg/kg) turn out when `Cc1cc(Nc2ncc(Cl)c(Nc3ccccc3S(=O)(=O)C(C)C)n2)c(OC(C)C)cc1C1CCNCC1` [LDK378] was run?
The value was 100.00.

And the “Mean relative tumor volume (RTV) ± S.E.” value (NCI-H2228 cells; D4, 20 mg/kg)?
The value was 71.66.

And the “Mean relative tumor volume (RTV) ± S.E.” value (NCI-H2228 cells; D7, 20 mg/kg)?
The value was 56.79.

What about the “Mean relative tumor volume (RTV) ± S.E.” value (NCI-H2228 cells; D11, 20 mg/kg) of the same molecule?
The value was 49.09.

What about the “Mean relative tumor volume (RTV) ± S.E.” value (NCI-H2228 cells; D14, 20 mg/kg) of the same molecule?
Its value is 48.58.

What about the “Mean relative tumor volume (RTV) ± S.E.” value (NCI-H2228 cells; D18, 20 mg/kg) of the same molecule?
The value was 35.67.

What about the “Mean relative tumor volume (RTV) ± S.E.” value (NCI-H2228 cells; D21, 20 mg/kg) of the same molecule?
The value was 31.44.

What about the IC50 (SU-DHL-1 cells) of the same molecule?
Its IC50 is 94.6 to 339 nM.
